# PMC8305768, “Design, Synthesis and Antiparasitic Evaluation of Click Phospholipids” (Molecules, 2021)
# Where a name gives a salt, the structure may show the parent alone.
# How the values were obtained:
# CYP2C9 = target: T1, CYP2C9 (Homo sapiens, UniProt P11712); assay: Cytochrome P450 inhibition assay (P450-Glo) CYP2C9; type: in vitro ADME; details: compounds 10 μM; miltefosine 10 μM or 1 μM
# T1 construct: purchased Corning Inc; host or cells: baculovirus-infected insect cells
# From the text: (§1) Cytochrome (CYP) P450 inhibition assay: These assays made use of microsomal preparations of CYP450 (1A2, 2C9, 2C19, 2D6 and 3A4) from baculovirus-infected insect cells (Corning Inc., Corning, NY, USA) and cytochrome c reductase (and cytochrome b5 for CYP450 3A4). For detection of CYP450 activity, the luminescence-based P450-Glo (Promega Corp., Madison, WI, USA) assay system was used that contained a luminogenic CYP450 substrate, lyophilized luciferin detection reagent and reconstitution buffer. The substrates were luciferin derivatives of CYP450-specific substrates that produce (4S)-4,5-dihydro-2-(6-hydroxybenzothiazolyl)-4-thiazolecarboxylic acid (D-luciferin) after cleavage by CYP450 (CYP450 3A4, luciferin-IPA; CYP450 2C19, luciferin-H EGE; CYP450 2C9, luciferin-H; CYP450 2D6, luciferin-ME EGE; CYP450 1A2, luciferin-1A2). CYP450 reactions were initiated by addition of the NADPH regeneration system to the enzyme–substrate mixture with the luciferin detection reagent stopping the reaction and the D-luciferin being converted to oxyluciferin under the production of light being proportional to the CYP450 activity. The CYP450 assays were performed using the Tecan Fluent liquid-handling automation platform (Tecan Group Ltd., Mannedorf, Switzerland) in the 384-well assay format. Compounds were added into an empty 384-well plate (100 nL/well in 1% v/v DMSO) using the Echo 550 Liquid Handler followed by the addition of 5 μL/well of the CYP450/substrate mixture and incubation for 30 min at 37 °C, after which the reaction was initiated by the addition of the 5 μL/well NADPH regeneration system. After a further 30-min incubation at 37 °C, the CYP450 reaction was stopped and the luciferase reaction was simultaneously initiated by addition of 10 μL/well of luciferin detection reagent, followed by an additional 30-min incubation at 37 °C. The luminescence signal was detected using an Infinite M1000 PRO plate reader (Tecan Group Ltd., Mannedorf, Switzerland). The NCs yielded 0% inhibition (1% v/v DMSO) and standard CYP450 specific inhibitors were used as positive controls, yielding 100% inhibition (CYP450 1A2, alpha-naphthoflavone; CYP450 2C9, sulfaphenazole; CYP450 2C19, troglitazone; CYP450 2D6, quinidine; CYP450 3A4, ketoconazole).
# (§2) Data analysis: The screening data were obtained in triplicate and analysed using ActivityBase (IDBS, Guildford, UK), and outlier elimination in the control wells was performed using the 3-sigma method. Unless stated, dose–response experiments were performed in the 11-point format with the IC50 value, Hill slope, minimum signal and maximum signal for each dose–response curve obtained using a four-parameter logistic fit in the XE module of ActivityBase (IDBS).
# CYP2D6 = target: T2, CYP2D6 (Homo sapiens, UniProt P10635); assay: Cytochrome P450 inhibition assay (P450-Glo) CYP2D6; type: in vitro ADME; details: compounds 10 μM; miltefosine 10 μM or 1 μM
# T2 construct: purchased Corning Inc; host or cells: baculovirus-infected insect cells
# T2 sequence (P10635 whole entry): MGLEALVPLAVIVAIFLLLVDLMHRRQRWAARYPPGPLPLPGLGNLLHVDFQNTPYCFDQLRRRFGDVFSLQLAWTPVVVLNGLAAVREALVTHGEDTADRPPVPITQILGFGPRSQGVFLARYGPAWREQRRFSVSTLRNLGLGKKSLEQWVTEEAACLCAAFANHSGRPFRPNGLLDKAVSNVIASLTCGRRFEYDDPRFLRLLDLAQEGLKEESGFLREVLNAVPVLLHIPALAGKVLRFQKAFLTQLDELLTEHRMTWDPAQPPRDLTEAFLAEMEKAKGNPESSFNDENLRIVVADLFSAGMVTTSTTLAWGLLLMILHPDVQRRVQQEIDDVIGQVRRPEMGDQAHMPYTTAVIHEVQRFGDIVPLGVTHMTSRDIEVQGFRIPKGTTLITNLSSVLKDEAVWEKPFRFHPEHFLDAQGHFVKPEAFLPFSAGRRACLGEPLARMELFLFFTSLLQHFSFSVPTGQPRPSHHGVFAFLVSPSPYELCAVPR
# From the text: as §1, §2
# WI-38 cells = assay: Cytotoxicity assay WI-38 (CellTiter-Glo); type: cell-based; details: compounds 10 μM; miltefosine 10 μM or 1 μM
# From the text: Early ADMET profiling: The early ADMET profiling of the new derivatives involved a group of assays widely used in drug development as part of the preclinical in vitro toxicity studies. In particular our panel included hERG inhibition, five cytochromes P450 (CYP1A2, CYP2C9, CYP2C19, CYP2D6 and CYP3A4), two cell-lines (A549, epithelial human lung adenocarcinoma, WI38 and foetal lung fibroblasts), Aurora B kinase and mitochondrial toxicity, in addition to the parasite relevant toxicity against THP1 macrophages. The compounds were tested at 10 μΜ, whilst the miltefosine control was tested at 10 μΜ or 1 μM. The toxicity of the new click phospholipids is depicted in Figure 3 in a traffic light format (from red through yellow to green for decreasing ADMET liabilities).
# Cytotoxicity assay: A549 cells and WI-38 cells were grown on surface-modified T175 cell culture flasks in Dulbecco’s modified Eagle medium with 10% foetal calf serum (FCS), streptomycin (100 μg/mL) and 100 U/mL penicillin G. At about 80% confluency, cells were washed, trypsinized, resuspended and counted in RPMI-1640 medium before seeding (in triplicate) into white 384-well microtiter plates (20 μL) at 500 cells/well and incubated at 37 °C in the presence of 5% CO2 for 24 h. A total of 20 μL/well of CellTiter-Glo (CTG) reagent (Promega Corp., Madison, WI, USA) was added to each well, and plates were read using an EnVision Multilabel 2103 Reader after a 10-min incubation in the dark. Dose–response assays for compounds made use of 11-point curves. Each test compound (200 nL of 10 mM top concentration in 100% v/v DMSO) was added to cells seeded in polystyrene 384-well cell culture microtiter plates using the Echo 550 Liquid Handler and read after 24 h of incubation at 37 °C in the presence of 5% CO2 using CTG as described above. The compounds/positive control (paclitaxel with final concentration of 10 μM and 1% v/v DMSO) and no compound (final 1% v/v DMSO) were added into the 384-well plates (200 nL/well; 1% v/v DMSO) using the Echo 550 Liquid Handler. The raw luminescence signal of each sample was converted into the percentage of cell growth.
# [1] = tested on: L. donovani strain BPK190 amastigotes; assay: Activity against L. donovani intramacrophage amastigotes (bone marrow-derived macrophages, qPCR); type: cell-based, Leishmania donovani; details: infected bone marrow-derived macrophages, 48 h; for inhibition of growth at 5 µM: Leishmania donovani, Macrophage, read-out: Parassite Load Reduction (%)
# Experimental: L. donovani strain BPK 190 [55] was cultivated at 25 °C in modified Medium199 (Sigma-Aldrich, with 20% heat-inactivated FCS, 40 mM HEPES pH 7.4, 0.2% NaHCO3, 100 μM adenin, 1.2 μg/mL 6-biopterin and 10 μg/mL haem, with 1 × Pen/Strep/l-glutamine (Sigma, Saint Louis, MI, USA), pH 7.0).
# Activity against L. donovani strain BPK190 was tested in vitro using bone marrow-derived macrophages as host cells. Infection was established for 24 h prior to the addition of compounds from 10 mM stocks in DMSO. Parasite load was determined 48 h later by quantifying Leishmania actin DNA relative to mouse actin DNA using real time qPCR as described.
# hERG = target: T3, hERG (Homo sapiens, UniProt Q12809); assay: hERG cardiotoxicity assay (Predictor hERG fluorescence polarization); type: binding; details: compounds 10 μM; miltefosine 10 μM or 1 μM
# T3 construct: purchased Thermo Fischer Scientific
# T3 sequence (Q12809 whole entry): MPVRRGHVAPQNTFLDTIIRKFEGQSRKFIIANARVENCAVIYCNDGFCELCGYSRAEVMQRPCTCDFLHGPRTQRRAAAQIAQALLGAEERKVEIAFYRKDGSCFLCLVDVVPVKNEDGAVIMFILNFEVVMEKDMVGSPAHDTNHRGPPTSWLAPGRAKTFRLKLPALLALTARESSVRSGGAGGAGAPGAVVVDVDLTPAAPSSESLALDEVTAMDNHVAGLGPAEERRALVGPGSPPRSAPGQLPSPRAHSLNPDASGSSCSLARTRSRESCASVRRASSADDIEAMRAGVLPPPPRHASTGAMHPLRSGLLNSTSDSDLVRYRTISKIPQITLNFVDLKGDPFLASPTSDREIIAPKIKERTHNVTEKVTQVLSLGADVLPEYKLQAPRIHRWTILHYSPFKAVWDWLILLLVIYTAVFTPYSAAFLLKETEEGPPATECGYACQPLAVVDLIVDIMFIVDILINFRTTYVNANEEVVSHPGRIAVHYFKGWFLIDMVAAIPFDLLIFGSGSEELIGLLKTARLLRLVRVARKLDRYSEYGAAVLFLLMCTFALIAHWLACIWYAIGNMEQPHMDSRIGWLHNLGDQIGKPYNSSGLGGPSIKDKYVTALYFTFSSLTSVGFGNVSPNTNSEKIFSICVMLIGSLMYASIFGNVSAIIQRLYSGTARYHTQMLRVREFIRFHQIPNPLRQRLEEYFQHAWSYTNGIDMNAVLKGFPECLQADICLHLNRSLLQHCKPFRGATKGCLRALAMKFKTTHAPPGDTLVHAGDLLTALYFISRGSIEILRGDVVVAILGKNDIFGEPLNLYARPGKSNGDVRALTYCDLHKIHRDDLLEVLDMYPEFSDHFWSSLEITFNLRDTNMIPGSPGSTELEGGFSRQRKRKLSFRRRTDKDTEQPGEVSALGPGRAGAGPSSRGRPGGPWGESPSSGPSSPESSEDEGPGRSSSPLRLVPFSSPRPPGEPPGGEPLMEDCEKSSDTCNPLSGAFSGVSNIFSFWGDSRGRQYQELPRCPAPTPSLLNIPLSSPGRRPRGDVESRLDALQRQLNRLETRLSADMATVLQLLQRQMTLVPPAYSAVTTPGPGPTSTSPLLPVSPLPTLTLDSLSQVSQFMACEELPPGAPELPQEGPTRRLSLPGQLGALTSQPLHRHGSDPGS
# Experimental: hERG cardiotoxicity assay: The Predictor® hERG fluorescence polarization assay (Thermo Fischer Scientific, Waltham, MA, USA) was used to test compounds for potential cardiotoxicity. To each well of the assay plate, 100 nL of the test/control compound was added followed by addition of 5 μL homogenized membrane solution (undiluted) and 5 μL of tracer (1 nM final concentration in the assay). The plates were incubated for 2 h at 25 °C in a humidity controlled incubator, and the fluorescence polarization was measured using an EnVision Multilabel 2103 Reader (PerkinElmer, Waltham, MA. USA). The NCs (0% inhibition) and positive controls with E-4031, a blocker of hERG-type potassium channels (yielding 100% inhibition), were used to normalize the raw data.
# as §2
# T1 sequence (P11712 whole entry): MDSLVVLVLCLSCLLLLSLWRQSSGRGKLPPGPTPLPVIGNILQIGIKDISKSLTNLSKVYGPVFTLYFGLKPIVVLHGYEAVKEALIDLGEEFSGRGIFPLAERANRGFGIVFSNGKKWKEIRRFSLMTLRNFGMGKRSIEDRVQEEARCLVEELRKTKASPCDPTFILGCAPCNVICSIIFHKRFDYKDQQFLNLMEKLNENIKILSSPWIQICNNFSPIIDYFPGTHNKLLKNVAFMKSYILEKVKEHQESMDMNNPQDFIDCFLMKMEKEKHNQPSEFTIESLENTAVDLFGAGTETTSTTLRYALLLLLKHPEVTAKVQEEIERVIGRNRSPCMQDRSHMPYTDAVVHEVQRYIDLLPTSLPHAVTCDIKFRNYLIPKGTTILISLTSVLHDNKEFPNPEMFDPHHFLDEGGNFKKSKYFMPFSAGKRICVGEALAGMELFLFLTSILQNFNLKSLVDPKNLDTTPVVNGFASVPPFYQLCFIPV
SMILES,% inhibition ± SD at 10 μΜ CYP2C9 (CYP2C9),% inhibition ± SD at 10 μΜ CYP2D6 (CYP2D6),% cell growth ± SD at 10 μΜ W1-38 (WI-38 cells),inhibition of growth at 5 µM [1],% inhibition ± SD at 10 μΜ hERG (hERG),Parassite Load Reduction (%) ([1]; 5 μM)
"CCCCCc1cn(CCCCCCCCCCCOP(=O)([O-])OCC[N+](C)(C)C)nn1 [Compound 25, 11-(4-pentyl-1H-1,2,3-triazol-1-yl)undecyl (2-(trimethylammonio)ethyl) phosphate inner salt]",–23.11%,–37.71%,93.46%,0%,–7.70%,
"CCCCCCCCc1noc(CCCCCOP(=O)([O-])OCC[N+](C)(C)C)n1 [Compound 53, 5-(3-octyl-1,2,4-oxadiazol-5-yl)pentyl (2-(trimethylammonio)ethyl) phosphate inner salt]",5.45%,–26.41%,83.83%,,8.95%,
"C[N+](C)(C)CCOP(=O)([O-])OCCCCCn1cc(CCCCCCCCN)nn1 [Compound 35, 5-(4-(8-aminooctyl)-1H-1,2,3-triazol-1-yl)pentyl (2-(trimethylammonio)ethyl) phosphate inner salt]",2.57%,7.26%,119.10%,69.1%,0.10%,
"C[N+](C)(C)CCOP(=O)([O-])OCCCCCCCCCCCn1cc(CC2CCCCC2)nn1 [Compound 29, 11-(4-(cyclohexylmethyl)-1H-1,2,3-triazol-1-yl)undecyl (2-(trimethylammonio)ethyl) phosphate inner salt]",–22.63%,–46.97%,92.93%,41.7%,–4.90%,
"CCCCCCCCc1noc(CCCCCCCCCCOP(=O)([O-])OCC[N+](C)(C)C)n1 [Compound 54, 10-(3-octyl-1,2,4-oxadiazol-5-yl)decyl (2-(trimethylammonio)ethyl) phosphate inner salt]",,6.07%,,,17.93%,
"C[N+](C)(C)CCOP(=O)([O-])OCCCCCCCCCCCn1cc(CCCCCCCCC(=O)O)nn1 [Compound 34, 11-(4-(8-carboxyoctyl)-1H-1,2,3-triazol-1-yl)undecyl (2-(trimethylammonio)ethyl) phosphate inner salt]",18.94%,23.08%,,43.8%,,
"C[N+](C)(C)CCOP(=O)([O-])OCCCCCCCCCCCn1cc(CC2CCCC2)nn1 [Compound 28, 11-(4-(cyclopentylmethyl)-1H-1,2,3-triazol-1-yl)undecyl (2-(trimethylammo nio)ethyl) phosphate inner salt]",–23.46%,–56.57%,114.04%,0%,–3.64%,
"C[N+](C)(C)CCOP(=O)([O-])OCCCCCCCCCCCn1cc(CCCCCCCCNC(=O)OCc2ccccc2)nn1 [Compound 32, 11-(4-(8-(((benzyloxy)carbonyl)amino)octyl)-1H-1,2,3-triazol-1-yl)undecyl (2-(trimethylammonio)ethyl) phosphate inner salt]",,,,0.7%,,abolished the activity
"C[N+](C)(C)CCCOP(=O)([O-])OCCCCCCCCCCCn1cc(CC2CCCCC2)nn1 [Compound 33, 11-(4-(cyclohexylmethyl)-1H-1,2,3-triazol-1-yl)undecyl (3-(trimethylammonio)propyl) phosphate inner salt]",19.72%,9.87±6.48%,136.32%,47.8%,16.60 ± 2.64%,
"CCCCCCCc1nnc(CCCCCCCCCCOP(=O)([O-])OCC[N+](C)(C)C)o1 [Compound 65, 10-(5-heptyl-1,3,4-oxadiazol-2-yl)decyl (2-(trimethylammonio)ethyl) phosphate inner salt]",28.32%,–30.44%,77.74%,,8.64%,
"C[N+](C)(C)CCOP(=O)([O-])OCCCCCn1cc(CCCCCCCCNC(=O)OCc2ccccc2)nn1 [Compound 31, 5-(4-(8-(((benzyloxy)carbonyl)amino)octyl)-1H-1,2,3-triazol-1-yl)pentyl (2-(trimethylammonio)ethyl) phosphate inner salt]",8.95%,11.06%,123.63%,59.2%,–6.43%,
"CCCCCCCCCCCCCCCCOP(=O)([O-])OCC[N+](C)(C)C [Miltefosine, hexadecylphosphocholine, reference compound]",–0.80%,30.83%,113.50%,44.3%,–16.92%,
"CCCCCCCCCCCc1nnc(CCCCCCCCCCOP(=O)([O-])OCC[N+](C)(C)C)o1 [Compound 66, 2-(trimethylammonio)ethyl (10-(5-undecyl-1,3,4-oxadiazol-2-yl)decyl) phosphate inner salt]",,,,,22.98%,
